Experimental data published in ChEMBL document CHEMBL3885881, “DrugMatrix”.

Species: Rattus norvegicus
Assay: DrugMatrix - Regimen: Daily Repeat
Format: toxicity, organism-based, Sprague-Dawley
Parameters: regimen Daily Repeat, gender Male, age 6-8 weeks
Conditions: in vivo, sc, route subcutaneous, […]; for ABSOLUTE BASOPHIL / ABSOLUTE EOSINOPHIL / ABSOLUTE LYMPHOCYTE / ABSOLUTE MONOCYTE / ABSOLUTE SEGMENTED NEUTROPHIL / BASOPHIL / EOSINOPHIL / ERYTHROCYTE COUNT / HEMATOCRIT / HEMOGLOBIN / LEUKOCYTE COUNT / LYMPHOCYTE / MEAN CORPUSCULAR HEMOGLOBIN / MEAN CORPUSCULAR VOLUME / MONOCYTE / NEUTROPHIL / NUCLEATED RED BLOOD CELLS / PLATELET COUNT: tissue Blood; for ALANINE AMINOTRANSFERASE / ALBUMIN / ALKALINE PHOSPHATASE / ASPARTATE AMINOTRANSFERASE / BLOOD UREA NITROGEN / CARBON DIOXIDE / CHLORIDE / CHOLESTEROL / CREATINE PHOSPHOKINASE / CREATININE / GLUCOSE / LACTATE DEHYDROGENASE / LIPASE / PHOSPHORUS / POTASSIUM / SODIUM / TOTAL BILIRUBIN / TOTAL PROTEIN / URIC ACID: tissue Plasma
[1] = 0 mg/kg, 72 h, dose level Control, time 3 day
[2] = 0 mg/kg, 120 h, dose level Control, time 5 day
[3] = 50 mg/kg, 72 h, dose level Low, time 3 day

`CCCCCCCCc1ccc(O)cc1` [4-OCTYLPHENOL] was tested, and the “ABSOLUTE BASOPHIL” value [1] was 0 CELLS/uL, the “ABSOLUTE EOSINOPHIL” value [1] was 0 CELLS/uL and the “ABSOLUTE LYMPHOCYTE” value [1] was 9782.33 CELLS/uL. The “ABSOLUTE MONOCYTE” value [1] was 114.67 CELLS/uL, the “ABSOLUTE SEGMENTED NEUTROPHIL” value [1] was 753 CELLS/uL and the BASOPHIL [1] was 0%. For the same compound, the EOSINOPHIL [1] was 0%, the “ERYTHROCYTE COUNT” value [1] was 5.14 x10E6/uL and the HEMATOCRIT [1] was 32.12%. For the same compound, the HEMOGLOBIN [1] was 13.13 G/DL, the “LEUKOCYTE COUNT” value [1] was 10.65 x10E3/uL and the LYMPHOCYTE [1] was 91.83%. The “MEAN CORPUSCULAR HEMOGLOBIN” value [1] was 25.83 pg, the “MEAN CORPUSCULAR VOLUME” value [1] was 62.43 fL and the MONOCYTE [1] was 1%. For the same compound, the NEUTROPHIL [1] was 7.17%, the “NUCLEATED RED BLOOD CELLS” value [1] was 0.17 /100WBC and the “PLATELET COUNT” value [1] was 657.83 x10E3/uL. For the same compound, the “ALANINE AMINOTRANSFERASE” value [1] was 60.33 u/L, the ALBUMIN [1] was 3.83 G/DL and the “ALKALINE PHOSPHATASE” value [1] was 366.33 u/L. The “ASPARTATE AMINOTRANSFERASE” value [1] was 104.5 u/L, the “BLOOD UREA NITROGEN” value [1] was 12.33 mg/dL and the “CARBON DIOXIDE” value [1] was 23.17 mmol/L. For the same compound, the CHLORIDE [1] was 96.67 MEQ/L, the CHOLESTEROL [1] was 73.17 mg/dL and the “CREATINE PHOSPHOKINASE” value [1] was 545.83 u/L. The CREATININE [1] was 0.26 mg/dL, the GLUCOSE [1] was 144.33 mg/dL and the “LACTATE DEHYDROGENASE” value [1] was 147.5 u/L. The LIPASE [1] was 9.33 u/L, the PHOSPHORUS [1] was 10.83 mg/dL and the POTASSIUM [1] was 5.68 MEQ/L. The SODIUM [1] was 138.83 MEQ/L, the “TOTAL BILIRUBIN” value [1] was 0.17 mg/dL and the “TOTAL PROTEIN” value [1] was 5.42 G/DL. For the same compound, the “URIC ACID” value [1] was 0.65 mg/dL, the “ABSOLUTE BASOPHIL” value [2] was 0 CELLS/uL and the “ABSOLUTE EOSINOPHIL” value [2] was 43.33 CELLS/uL. For the same compound, the “ABSOLUTE LYMPHOCYTE” value [2] was 12883 CELLS/uL, the “ABSOLUTE MONOCYTE” value [2] was 166.83 CELLS/uL and the “ABSOLUTE SEGMENTED NEUTROPHIL” value [2] was 1290.17 CELLS/uL. For the same compound, the BASOPHIL [2] was 0%, the EOSINOPHIL [2] was 0.33% and the “ERYTHROCYTE COUNT” value [2] was 5.79 x10E6/uL. The HEMATOCRIT [2] was 36.37%, the HEMOGLOBIN [2] was 14.17 G/DL and the “LEUKOCYTE COUNT” value [2] was 14.38 x10E3/uL. The LYMPHOCYTE [2] was 89.17%, the “MEAN CORPUSCULAR HEMOGLOBIN” value [2] was 24.48 pg and the “MEAN CORPUSCULAR VOLUME” value [2] was 62.83 fL. The MONOCYTE [2] was 1.17%, the NEUTROPHIL [2] was 9.33% and the “NUCLEATED RED BLOOD CELLS” value [2] was 0.5 /100WBC. For the same compound, the “PLATELET COUNT” value [2] was 1267.33 x10E3/uL, the “ALANINE AMINOTRANSFERASE” value [2] was 53.5 u/L and the ALBUMIN [2] was 3.82 G/DL. For the same compound, the “ALKALINE PHOSPHATASE” value [2] was 342.33 u/L, the “ASPARTATE AMINOTRANSFERASE” value [2] was 83.67 u/L and the “BLOOD UREA NITROGEN” value [2] was 13.17 mg/dL. For the same compound, the “CARBON DIOXIDE” value [2] was 28.17 mmol/L, the CHLORIDE [2] was 101.5 MEQ/L and the CHOLESTEROL [2] was 70.83 mg/dL. The “CREATINE PHOSPHOKINASE” value [2] was 656.67 u/L, the CREATININE [2] was 0.17 mg/dL and the GLUCOSE [2] was 171.33 mg/dL. The “LACTATE DEHYDROGENASE” value [2] was 169 u/L, the LIPASE [2] was 9.17 u/L and the PHOSPHORUS [2] was 12.88 mg/dL. For the same compound, the POTASSIUM [2] was 6.54 MEQ/L, the SODIUM [2] was 141.2 MEQ/L and the “TOTAL BILIRUBIN” value [2] was 0.18 mg/dL. For the same compound, the “TOTAL PROTEIN” value [2] was 5.68 G/DL, the “URIC ACID” value [2] was 2.02 mg/dL and the “ABSOLUTE BASOPHIL” value [3] was 0 CELLS/uL. The “ABSOLUTE EOSINOPHIL” value [3] was 58 CELLS/uL, the “ABSOLUTE LYMPHOCYTE” value [3] was 8002.33 CELLS/uL and the “ABSOLUTE MONOCYTE” value [3] was 124.67 CELLS/uL. For the same compound, the “ABSOLUTE SEGMENTED NEUTROPHIL” value [3] was 648.33 CELLS/uL, the BASOPHIL [3] was 0% and the EOSINOPHIL [3] was 0.67%. For the same compound, the “ERYTHROCYTE COUNT” value [3] was 5.33 x10E6/uL, the HEMATOCRIT [3] was 34.07% and the HEMOGLOBIN [3] was 13.23 G/DL. The “LEUKOCYTE COUNT” value [3] was 8.83 x10E3/uL, the LYMPHOCYTE [3] was 90% and the “MEAN CORPUSCULAR HEMOGLOBIN” value [3] was 24.83 pg. The “MEAN CORPUSCULAR VOLUME” value [3] was 63.87 fL, the MONOCYTE [3] was 1.67% and the NEUTROPHIL [3] was 7.67%. For the same compound, the “NUCLEATED RED BLOOD CELLS” value [3] was 0 /100WBC, the “PLATELET COUNT” value [3] was 876 x10E3/uL and the “ALANINE AMINOTRANSFERASE” value [3] was 50.33 u/L. The ALBUMIN [3] was 3.9 G/DL, the “ALKALINE PHOSPHATASE” value [3] was 340 u/L and the “ASPARTATE AMINOTRANSFERASE” value [3] was 88 u/L. The “BLOOD UREA NITROGEN” value [3] was 10 mg/dL, the “CARBON DIOXIDE” value [3] was 24.67 mmol/L and the CHLORIDE [3] was 94 MEQ/L. The CHOLESTEROL [3] was 67.33 mg/dL, the “CREATINE PHOSPHOKINASE” value [3] was 672.33 u/L and the CREATININE [3] was 0.22 mg/dL. The GLUCOSE [3] was 130.67 mg/dL, the “LACTATE DEHYDROGENASE” value [3] was 143.33 u/L and the LIPASE [3] was 9.67 u/L. It also gave a PHOSPHORUS [3] of 11.07 mg/dL, a POTASSIUM [3] of 6.18 MEQ/L and an SODIUM [3] of 136.97 MEQ/L. The “TOTAL BILIRUBIN” value [3] was 0.1 mg/dL, the “TOTAL PROTEIN” value [3] was 5.4 G/DL and the “URIC ACID” value [3] was 0.83 mg/dL.
